Where “and” joins values, the source holds several entries; their conditions need not be identical. Identical values can stand only once.
Test: xn = mol fraction of the nth substance listed

CCCCCC[n+]1ccn(C)c1.[Cl-] + OC[C@H]1O[C@@](CO)(O[C@H]2O[C@H](CO)[C@@H](O)[C@H](O)[C@H]2O)[C@@H](O)[C@@H]1O + O
298.15 K, 101.3 kPa
Conditions	electrical conductivity
x2 = 0, x1 = 4.23e-06	0.00276 S/m
x2 = 0, x1 = 7.11e-06	0.00451 S/m
x2 = 0, x1 = 1.01e-05	0.00631 S/m
x2 = 0, x1 = 1.293e-05	0.008 S/m
x2 = 0, x1 = 1.551e-05	0.00953 S/m
x2 = 0, x1 = 1.836e-05	0.01121 S/m
x2 = 0, x1 = 2.116e-05	0.0129 S/m
x2 = 0, x1 = 2.393e-05	0.0145 S/m
x2 = 0, x1 = 2.652e-05	0.016 S/m
x2 = 0, x1 = 2.919e-05	0.0175 S/m
x2 = 0.003591, x1 = 8.04e-06	0.00433 S/m
x2 = 0.003591, x1 = 1.174e-05	0.00611 S/m
x2 = 0.003591, x1 = 1.526e-05	0.00778 S/m
x2 = 0.003591, x1 = 1.864e-05	0.00936 S/m
x2 = 0.003591, x1 = 2.202e-05	0.0109 S/m
x2 = 0.003591, x1 = 2.53e-05	0.01242 S/m
x2 = 0.003591, x1 = 2.853e-05	0.0139 S/m
x2 = 0.003591, x1 = 3.177e-05	0.01532 S/m
x2 = 0.003591, x1 = 3.49e-05	0.0167 S/m
x2 = 0.003591, x1 = 3.779e-05	0.018 S/m
x2 = 0.007156, x1 = 6.71e-06	0.00314 S/m
x2 = 0.007156, x1 = 1.012e-05	0.00459 S/m
x2 = 0.007156, x1 = 1.35e-05	0.00603 S/m
x2 = 0.007156, x1 = 1.699e-05	0.00749 S/m
x2 = 0.007156, x1 = 2.028e-05	0.00888 S/m
x2 = 0.007156, x1 = 2.319e-05	0.0101 S/m
x2 = 0.007156, x1 = 2.608e-05	0.01131 S/m
x2 = 0.007156, x1 = 2.915e-05	0.0126 S/m
x2 = 0.007156, x1 = 3.212e-05	0.0138 S/m
x2 = 0.007156, x1 = 3.545e-05	0.01517 S/m
x2 = 0.0107, x1 = 7.99e-06	0.00313 S/m
x2 = 0.0107, x1 = 1.176e-05	0.00442 S/m
x2 = 0.0107, x1 = 1.521e-05	0.00559 S/m
x2 = 0.0107, x1 = 1.87e-05	0.00676 S/m
x2 = 0.0107, x1 = 2.207e-05	0.00787 S/m
x2 = 0.0107, x1 = 2.533e-05	0.00894 S/m
x2 = 0.0107, x1 = 2.851e-05	0.00998 S/m
x2 = 0.0107, x1 = 3.135e-05	0.0109 S/m
x2 = 0.0107, x1 = 3.442e-05	0.0119 S/m
x2 = 0.0107, x1 = 3.724e-05	0.0128 S/m
x2 = 0.01421, x1 = 1.053e-05	0.00345 S/m
x2 = 0.01421, x1 = 1.542e-05	0.00495 S/m
x2 = 0.01421, x1 = 2.022e-05	0.00641 S/m
x2 = 0.01421, x1 = 2.485e-05	0.00781 S/m
x2 = 0.01421, x1 = 2.901e-05	0.00905 S/m
x2 = 0.01421, x1 = 3.286e-05	0.0102 S/m
x2 = 0.01421, x1 = 3.675e-05	0.01135 S/m
x2 = 0.01421, x1 = 4.055e-05	0.0125 S/m
x2 = 0.01421, x1 = 4.424e-05	0.0136 S/m
x2 = 0.01421, x1 = 4.811e-05	0.0147 S/m
x2 = 0.0177, x1 = 9.25e-06	0.00262 S/m
x2 = 0.0177, x1 = 1.338e-05	0.0037 S/m
x2 = 0.0177, x1 = 1.736e-05	0.00474 S/m
x2 = 0.0177, x1 = 2.112e-05	0.00571 S/m
x2 = 0.0177, x1 = 2.447e-05	0.00658 S/m
x2 = 0.0177, x1 = 2.813e-05	0.00751 S/m
x2 = 0.0177, x1 = 3.139e-05	0.00835 S/m
x2 = 0.0177, x1 = 3.466e-05	0.00918 S/m
x2 = 0.0177, x1 = 3.742e-05	0.00987 S/m
x2 = 0.0177, x1 = 4.046e-05	0.0106 S/m
x2 = 0.02116, x3 = 0.9787	0.01832 S/m
x2 = 0.02116, x3 = 0.9788	0.014 S/m and 0.0154 S/m and 0.0169 S/m

CCCCCC[n+]1ccn(C)c1.O=S(=O)([N-]S(=O)(=O)C(F)(F)C(F)(F)F)C(F)(F)C(F)(F)F + O
101 kPa, x2 = 0.187
Conditions	electrical conductivity [S/m]	viscosity [mPa·s]
293.15 K	–	122
295.15 K	0.15	–
